Values quoted from earlier work in patent publication US20210330644A1, “COMBINATION THERAPY FOR TREATING METASTATIC PROSTATE CANCER” (Progenics Pharmaceuticals, Inc, priority 2018, published 2021).

Test system: mCRPC

## CNC(=O)c1ccc(N2C(=S)N(c3ccc(C#N)c(C(F)(F)F)c3)C(=O)C2(C)C)cc1F [enzalutamide]
After progression under abiraterone therapy of any duration
  proportion of patients with >50% decline in PSA from baseline: 30-51%
Majority of data
  benefit in abiraterone-resistant patients: limited benefit
